# Results taken from US8679776B2, “Activatable dyes” (University of Massachusetts, priority 2007, dated 2014).
# Columns and labels:
# [1] = Photoactivation of NVOC-Oxazine 16 in vitro (acetonitrile solution, long-wave UV); format: physicochemical
# Excerpt: When novel, non-fluorescent caged dye (16) is irradiated with long-wave UV light (about 360 nm), the NVOC group is photolytically removed, and rapidly decarboxylates to form the oxazine 1 leuco dye (15). The non-fluorescent leuco dye rapidly reacts with oxygen in solution to generate the brightly fluorescent oxazine 1 dye (14). […] In such an evaluation, maximal emission was observed after less than four minutes using a hand-held longwave UV lamp. Irradiation in a fluorescence microscope, with either arc lamp or laser illumination, photoactivates this dye in less than 1 second due to the much higher photon flux through the microscope objective.
# Referring to FIGS. 15A and 15B, NVOC-Oxazine 16 was dissolved in acetonitrile (2 mL) and placed in a fluorescence cuvette. The rate of photo-uncaging was monitored by continuous excitation at 365 nm and emission detection at 665 nm in a SPEX Fluoromax-3. Under these conditions, fluorescence activation reached a maximum in approximately two minutes.
# [2] = system: CHO-K1 cells; experiment: Photoactivation in live mammalian tissue culture cells; format: cell-based
# Protocol: Photoactivation of NVOC-MR121 in live CHO-K1 cells before (a) and after (b, c) brief exposure to DAPI-filtered light (˜100 ms). In (b) the field was limited to two cells, while in (c) the entire field was illuminated (40× objective). Cells were imaged with a Cy5 filter set.
# Referring to FIGS. 16A (before) and 16B (after photoactivation), CHO-K1 cells were incubated with 1 μM of NVOC-Oxazine 16 for one hour, then imaged on a fluorescence microscope at 40× with a Cy5 filter set (Zeiss Axiovert 200M). […] All of these latent fluorophores are chemically stable in cells, and can be efficiently photoactivated 24 hours after initial incubation.
# [3] = target: T1, Transferrin (Homo sapiens, UniProt P02787); experiment: Labeling of transferrin with caged dye, SDS-PAGE imaged before and after photoactivation; settings: for near-IR fluorescence before photoactivation / near-IR fluorescence after photoactivation: 630 nm excitation, 670 nm long pass filter; for near-IR fluorescence after photoactivation: hand-held longwave UV lamp for 1 min
# T1 construct: purchased Sigma-Aldrich
# T1 sequence (P02787 20-698, species assumed): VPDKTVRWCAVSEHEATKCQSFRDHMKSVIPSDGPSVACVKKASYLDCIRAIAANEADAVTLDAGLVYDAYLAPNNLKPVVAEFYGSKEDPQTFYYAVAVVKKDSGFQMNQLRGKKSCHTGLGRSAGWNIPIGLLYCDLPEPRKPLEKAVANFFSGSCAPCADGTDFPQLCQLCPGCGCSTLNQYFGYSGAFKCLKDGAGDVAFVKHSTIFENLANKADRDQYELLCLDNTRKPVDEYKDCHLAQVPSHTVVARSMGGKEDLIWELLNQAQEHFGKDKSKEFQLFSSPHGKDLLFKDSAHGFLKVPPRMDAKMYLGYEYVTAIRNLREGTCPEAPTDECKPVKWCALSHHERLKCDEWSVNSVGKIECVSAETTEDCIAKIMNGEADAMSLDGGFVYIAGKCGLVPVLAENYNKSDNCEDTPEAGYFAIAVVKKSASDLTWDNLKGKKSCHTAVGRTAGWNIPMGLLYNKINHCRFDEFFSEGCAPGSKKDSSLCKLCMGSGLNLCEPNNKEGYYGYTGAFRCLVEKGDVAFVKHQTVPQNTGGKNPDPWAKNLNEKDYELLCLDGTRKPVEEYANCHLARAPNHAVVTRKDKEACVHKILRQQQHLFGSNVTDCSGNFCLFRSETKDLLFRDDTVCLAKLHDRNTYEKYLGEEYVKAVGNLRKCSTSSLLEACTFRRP
# Protocol: FIG. 20 is an SDS-PAGE gel of transferrin labeled with a caged oxazine dye, imaged before and after photoactivation. Transferrin in lanes 1-3 is labeled with NVOC-MR121 (25). Lanes 4-6 are labeled with tetramethyl-rhodamine (TMR).
# Transferrin (Sigma-Aldrich®, 5 mg) was dissolved in 0.5 ml of 0.1M NaHCO3, pH 8.3. The caged oxazine dye 25 (0.2 mg) in 0.02 ml of DMSO and added to the transferrin solution and incubated at room temperature for one hour. The labeled protein was separated from the dye on a PD-10 column, and analyzed by SDS-PAGE (FIG. 20). The transferrin conjugate was initially non-fluorescent (FIG. 20a).
molecule,measurement,setting,value
"CCN(CC)c1ccc2nc3ccc(=[N+](CC)CC)cc-3oc2c1.[O-][Cl+3]([O-])([O-])[O-] [oxazine 1, reference compound]",maximal emission,[1]; active dye generated by uncaging,about 665 nm
Bis-NH NVOC-Oxazine [Compound 41],staining pattern after photoactivation,[2],more diffuse staining
NVOC-Oxazine [Compound 16],time to maximal emission after exposure to long-wave UV light,"[1]; acetonitrile solution, hand-held longwave UV lamp, emission about 665 nm",less than four
same,time for fluorescence activation to reach a maximum,"[1]; acetonitrile, continuous excitation at 365 nm, emission detection at 665 nm, SPEX Fluoromax-3",approximately two
same,time to photoactivate in a fluorescence microscope,[1]; arc lamp or laser illumination through the microscope objective,less than 1 second
same,cell permeability,[2],cell-permeable
same,cellular fluorescence after brief exposure to DAPI-filtered light,"[2]; 1 μM, one hour incubation, 365 nm, <1 second, Cy5 filter set",dramatic increase in cellular fluorescence
TMR-Tf: transferrin labeled with tetramethyl-rhodamine (TMR) [reference compound],"fluorescence before photoactivation, TMR channel","[3]; SDS-PAGE, 520 nm excitation and 575DF20 filter",readily visible
transferrin conjugate: transferrin labeled with caged oxazine dye NVOC-MR121 NHS ester 25,near-IR fluorescence before photoactivation,[3]; SDS-PAGE,non-fluorescent
same,near-IR fluorescence before photoactivation,"[3]; SDS-PAGE, listed as labeled transferrin",No near-IR fluorescence is visible
same,near-IR fluorescence after photoactivation,[3],bright near-IR fluorescence
same,near-IR fluorescence after photoactivation,[3]; listed as labeled transferrin,brightly fluorescent in the near-IR
